# Tests used:
# human skin [1] = test: second human skin patch test; format: in vivo
# Source text: (§1) Based on these studies PDO is not expected to be a skin irritant or sensitizer in humans.
# human skin [2] = test: human skin patch test, 5, 25 and 50% (induction and challenge phases); format: in vivo; conditions: diluted with D.I. water to 5%, 105 panelists completed
# Source text: as §1
# The purpose of this study was to determine the potential of biologically-derived 1,3-propanediol, diluted to concentrations of 5%, 25%, and 50%, to cause irritation or delayed contact hypersensitivity in humans. The method employed in carrying out this test, described below, was similar to that described in “Appraisal of the Safety of Chemicals in Foods, Drugs and Cosmetics” by J. H. Drake and published by the Association of Food and Drug Officials of the United States, incorporated herein by reference.
# Test Panel: The test involved the application of the test article to the upper arms of a group of 112 volunteer panelists. The panelists ranged from 16 to 71 years of age. One hundred and five panelists completed the study. Prior to the initiation of the study, all panelists were in good general health and free of any visible skin disease or anomaly in the area to be patched. Each panelist was required to read, understand and sign an informed consent statement. […]
SMILES,"dermal irritation or sensitization reactions (human skin [1]; 25, 50, and 75% PDO at pH 7, or 75% PDO at pH 4 and 9)","skin irritant, fatiguing agent, or sensitizing agent (human skin [2])","patch test irritation of human skin (human skin [1]; 25, 50, and 75% (pH 7))"
"OCCCO [PDO, 1,3-propanediol]",did not produce any clinically significant dermal irritation or sensitization reactions,"not to be a skin irritant, fatiguing agent, or sensitizing agent",–
"CC(O)CO (stereo not drawn) [propylene glycol, reference compound]",–,–,patch test irritants and cumulative irritants

# Reference: patent US9668951B2, “Pharmaceutical compositions comprising renewably-based biodegradable 1,3-propanediol” (DuPont Tate & Lyle Bio Products Company, LLC, priority 2006, dated 2017)
